Source: patent US20240024320A1, “METHODS OF TREATING CANCER WITH A COMBINATION OF TUCATINIB AND AN ANTI-PD-1/ANTI-PD-L1 ANTIBODY” (Seagen Inc., priority 2020, published 2024)
“Also recorded” adds a separate entry of the source.

Columns and labels:
Fo5 tumors [1] = assay: ex vivo RNA sequencing / gene expression analysis of Fo5 tumors; type: in vivo, FVB mice
Protocol: The harvested tumors were then processed for stranded polyA RNA sequencing. […] Columns represent individual tumor samples and rows are individual genes.
Genomic analysis of mouse samples. RNA was extracted from Fo5 tumors treated in vivo with tucatinib at 50 mg/kg or vehicle (methyl cellulose, 0.5%) for 10 days using TRIzol® Reagent with the PureLink® RNA Mini Kit (Invitrogen™, Thermo Fisher Scientific, Waltham, MA, USA). Quantity and integrity of the total RNA was checked using a TapeStation 2200 (Agilent Technologies) and 500 ng used for library preparation according to standard protocols (NEBNext Ultra II Directional RNA Library Prep Kit for Illumina and NEBNext Poly(A) mRNA Magnetic Isolation Module, NEB). Indexed libraries were pooled and sequenced on a NextSeq500 flowcell (Illumina) to generate 25-50 million paired-end 75 bp reads per sample. Pre-processing and quantile normalization of microarray data was performed with the AFFY package in R. From normalized RNA intensities, unbiased, differential expression analysis and a short list of gene (FDR<0.05) was generated with the LIMMA package in R. Using the differentially expressed genes, pathway and molecular function enrichment analysis was performed in MetCore GeneCo. The GSEA software for gene set enrichment analysis was used with normalized RNA intensities. The false discovery rate was set at <10%. Top gene pathways were selected based on a P-value of <0.05 and a fold change of >1.5. All analyses were performed using R version 3.5.0. Gene sets for differential expression heat maps included interferon-γ 10-gene, preliminary expanded immune 28-gene, T cell inflamed 18-gene, and T-effector 6-gene signature sets, all of which have been associated with PD-1 or PD-L1 blockade amongst a range of tumor types, including breast cancer.

HER2 signaling pathway [2] = assay: Western blot for phosphor-HER2 and total HER2, Fo5 tumors; type: in vivo, FVB mice; details: Fo5 tumors treated with tucatinib vs vehicle; FIG. 11A
H2N113 tumors [3] = type: in vivo
H2N113 tumors [4] = type: in vivo; remark: listed apart in the source
HER2 = HER2 (Homo sapiens, UniProt P04626); details: cellular signaling assays; background statement; cited from earlier work
Fo5 tumors [5] = assay: Fo5 trastuzumab-resistant HER2-positive murine tumor model: tumor growth and survival; type: in vivo, FVB mice
SKBR3 = assay: growth inhibition assay (CellTitre-Glo), SKBR3; type: cell-based, human; details: SKBR3, dose-dependent cell growth inhibition; FIG. 5B
BT474 = assay: growth inhibition assay (CellTitre-Glo), BT474; type: cell-based, human; details: BT474, dose-dependent cell growth inhibition; FIG. 5A
H2N113 = assay: growth inhibition assay (CellTitre-Glo), H2N113; type: cell-based, murine; details: H2N113, dose-dependent cell growth inhibition; FIG. 5C
Fo5 tumors [6] = assay: ex vivo FACS analysis of trastuzumab resistant Fo5 tumors; type: in vivo, FVB mice
Protocol: Tumors were harvested after 10-14 days of tucatinib 50 mg/kg treatment for Fo5 tumors and analyzed by FACS.
In vivo mouse studies. Female MMTV/Balb/c and FVB mice between 6 to 8 weeks of age were utilized for experiments. Treatment groups consisted of n=5 to 8 mice per group. […] Randomization and treatment commenced at approximately day 10 post-inoculation for the H2N113 tumor model with tumor sizes varying between 40 to 80 mm^3 and approximately day 14 for the Fo5 tumor model with tumor sizes varying between 60 to 120 mm^3. Tumor volumes were calculated using the equation […], where length and width refer to the larger and smaller dimensions collected at each measurement. […] Immunotherapy and isotype controls in both models were delivered on days 0, 4, 8, and 12. Tumor volumes were measured twice weekly with calipers. Survival was monitored and determined when the tumors reached an ethical limit of 1500 mm^3.
Flow cytometry analysis. For ex vivo studies, tumors were dissected, mechanically morcellated and passed through 70 μm filters. Cells were then resuspended in 30 μg/mL DNAse (Sigma-Aldrich) followed by Fc block (clone 2.4g2). Single cell suspensions were then stained with antibody cocktails for various TIL subsets. In some experiments, isolated cells were stimulated with phorbol 12-myristate 13-acetate (PMA; 50 ng/mL) and ionomycin (1 μg/mL; Sigma-Aldrich) in the presence of GolgiPlug (BD Biosciences; 1:1000) and GolgiStop (BD Biosciences; 1:1500) for 3 to 4 hours prior to flow cytometry analysis. Samples were analyzed by FACS with either Fixable Yellow or Zombie Red to discriminate viable and dead cells. BD fluorosphere counting beads were added to cocktails before running sample.

HER2 signaling pathway [7] = assay: Western blot for phosphor-HER2 and total HER2, H2N113 cells; type: cell-based, murine; details: H2N113 cells treated with tucatinib vs vehicle; FIG. 11B
[8] = Example 4, after 14 days of tucatinib treatment
[9] = Example 4, tucatinib treated tumors
[10] = tucatinib 100 mg/kg orally once daily, 14 days, FIG. 2L
[11] = Example 4, after 10 days of tucatinib, FIG. 16A-16B
[12] = Example 4, after 10 days of tucatinib, FIG. 16C-16D

Sequence of HER2 (P04626 23-1255): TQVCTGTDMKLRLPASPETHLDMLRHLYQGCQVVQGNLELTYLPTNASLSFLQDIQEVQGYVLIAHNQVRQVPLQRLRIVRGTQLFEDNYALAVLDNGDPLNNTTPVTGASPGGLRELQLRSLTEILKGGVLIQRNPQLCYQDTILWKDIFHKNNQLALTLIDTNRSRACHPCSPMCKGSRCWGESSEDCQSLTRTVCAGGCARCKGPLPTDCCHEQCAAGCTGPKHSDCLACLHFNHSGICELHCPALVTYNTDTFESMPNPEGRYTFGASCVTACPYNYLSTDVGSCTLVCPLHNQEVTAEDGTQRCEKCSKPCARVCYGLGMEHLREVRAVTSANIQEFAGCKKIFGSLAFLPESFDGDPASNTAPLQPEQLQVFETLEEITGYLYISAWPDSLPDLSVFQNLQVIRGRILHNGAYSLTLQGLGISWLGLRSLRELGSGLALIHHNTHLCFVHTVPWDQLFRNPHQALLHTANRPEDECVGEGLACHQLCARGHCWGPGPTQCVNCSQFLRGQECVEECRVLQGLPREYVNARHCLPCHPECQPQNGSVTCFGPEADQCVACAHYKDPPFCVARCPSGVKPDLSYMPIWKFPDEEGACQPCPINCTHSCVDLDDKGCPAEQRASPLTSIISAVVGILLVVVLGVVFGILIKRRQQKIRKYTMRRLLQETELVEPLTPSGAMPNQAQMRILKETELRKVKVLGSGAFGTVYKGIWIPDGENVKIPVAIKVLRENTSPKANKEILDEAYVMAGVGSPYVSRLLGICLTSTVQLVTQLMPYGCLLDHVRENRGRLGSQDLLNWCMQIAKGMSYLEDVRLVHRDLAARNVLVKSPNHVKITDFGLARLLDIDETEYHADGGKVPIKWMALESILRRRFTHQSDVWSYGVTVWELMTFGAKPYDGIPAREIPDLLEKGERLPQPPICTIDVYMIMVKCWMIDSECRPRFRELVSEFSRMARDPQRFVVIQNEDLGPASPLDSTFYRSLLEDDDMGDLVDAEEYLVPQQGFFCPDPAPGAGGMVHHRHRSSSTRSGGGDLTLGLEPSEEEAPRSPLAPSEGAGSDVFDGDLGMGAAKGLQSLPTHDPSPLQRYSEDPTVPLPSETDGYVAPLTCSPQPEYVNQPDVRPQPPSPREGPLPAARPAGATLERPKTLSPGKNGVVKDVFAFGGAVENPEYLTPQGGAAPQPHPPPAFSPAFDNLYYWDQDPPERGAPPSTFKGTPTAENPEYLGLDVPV

For `Cc1cc(Nc2ncnc3ccc(NC4=NC(C)(C)CO4)cc23)ccc1Oc1ccn2ncnc2c1` [tucatinib, N^4-(4-([1,2,4]triazolo[1,5-a]pyridin-7-yloxy)-3-methylphenyl)-N-(4,4-dimethyl-4,5-dihydrooxazol-2-yl) quinazoline-4,6-diamine], the “genes associated with favorable clinical response to checkpoint inhibitors” value (Fo5 tumors [1]; day 10 post treatment, differential gene expression, FIG. 21A-21D) was “upregulation”, the “genes related to immune cell function” value (Fo5 tumors [1]; day 10 post treatment, tucatinib 50 mg/kg vs vehicle, FIG. 17, 18A-18B) was “significant upregulation” and the “genes related to antigen presentation” value (Fo5 tumors [1]; day 10 post treatment, tucatinib 50 mg/kg vs vehicle, FIG. 19, 20A-20B) was “significant upregulation”. The “expression of genes predictive of response to immunotherapy (IFNγ-related gene expression signature, expanded immune signature)” value (Fo5 tumors [1]; stranded polyA RNA sequencing, tucatinib vs vehicle, FIG. 3A, 3B) was “increased expression”, the “HER2 signaling pathway (phosphor-HER2 and total HER2)” value (HER2 signaling pathway [2]) was “Inhibition of the HER2 signaling pathway” and the tumor growth (H2N113 tumors [3]; tucatinib at increasing doses by oral gavage vs vehicle) was “significant dose-dependent tumor growth inhibition”. The survival (H2N113 tumors [3]; tucatinib at increasing doses vs vehicle, FIG. 8B) was “improved survival”, the “CD8+ effector memory (CD44+CD62L−) T cell frequency as a percentage of total CD8+” value (H2N113 tumors [4]; [8]) was “increased” and the “PD-1+ expression of CD8+ effector memory T cells” value (H2N113 tumors [4]; [8]) was “significantly higher”. The “TIM3+ expression of CD8+ effector memory T cells” value (H2N113 tumors [4]; [8]) was “significantly higher”, the “CD8+ proportion” value (H2N113 tumors [4]; Example 4, after 14 days of tucatinib treatment vs vehicle) was “increased” and the “expression of Ki67 in CD8+ effector memory T cells” value (H2N113 tumors [4]; Example 4, day 14, FIG. 13A) was “increased expression”. For the same compound, the “interferon-7 expression in CD8+ effector memory T cells compared to vehicle treated controls” value (H2N113 tumors [4]; Example 4, day 14, FIG. 13B) was “significantly greater”, the “CD49b+ natural killer cell population proportion of CD45+CD3− lymphocytes” value (H2N113 tumors [4]; Example 4, day 14, FIG. 14) was “significantly increased” and the “CD103+ dendritic cells” value (H2N113 tumors [4]; [9]) was “significant increase”. For the same compound, the “MHC II+ macrophages” value (H2N113 tumors [4]; [9]) was “significant increase”, the “granulocytic MDSC as proportion of CD45.2+ lymphocytes” value (H2N113 tumors [4]; [9]) was “significant decrease” and the “neutrophils (CD11c-F4/80-CD11b+Ly6G+Ly6C+) as proportion of CD45.2+ lymphocytes” value (H2N113 tumors [4]; [9]) was “significant decrease”. The “suppressive MHC II low macrophages as proportion of CD45.2+ lymphocytes” value (H2N113 tumors [4]; [9]) was “significant decrease”, the “PD-L1 expression on CD45+ cells (total TILs)” value (H2N113 tumors [4]; Example 4, tucatinib vs vehicle treated TILs, FIG. 15A-15B) was “increased intensity” and the “infiltration of natural killer (NK) cells in the tumor” value (H2N113 tumors [4]; tucatinib 100 mg/kg orally once daily, 14 days) was “increase”. The “infiltration of CD8+ T cells in the tumor” value (H2N113 tumors [4]; tucatinib 100 mg/kg orally once daily, 14 days, vs vehicle, FIG. 2A) was “increase”, the “infiltration of CD4+ T cells not expressing FOXP3 in the tumor” value (H2N113 tumors [4]; tucatinib 100 mg/kg orally once daily, 14 days, FIG. 2B) was “increase” and the “infiltration of CD4+ T cells expressing FOXP3 in the tumor” value (H2N113 tumors [4]; tucatinib 100 mg/kg orally once daily, 14 days, FIG. 2C) was “increase”. For the same compound, the “infiltration of CD8+ T cells expressing Ki67 in the tumor” value (H2N113 tumors [4]; tucatinib 100 mg/kg orally once daily, 14 days, FIG. 2D) was “increase”, the “infiltration of CD8+ T cells expressing IFNγ in the tumor” value (H2N113 tumors [4]; tucatinib 100 mg/kg orally once daily, 14 days, FIG. 2E) was “increase” and the “infiltration of CD8+ T cells expressing PD-1 in the tumor” value (H2N113 tumors [4]; tucatinib 100 mg/kg orally once daily, 14 days, FIG. 2F) was “increase”. For the same compound, the “infiltration of CD8+ T cells expressing OX40 in the tumor” value (H2N113 tumors [4]; tucatinib 100 mg/kg orally once daily, 14 days, FIG. 2G) was “increase”, the “infiltration of CD8+ T cells expressing TIM3 in the tumor” value (H2N113 tumors [4]; tucatinib 100 mg/kg orally once daily, 14 days, FIG. 2H) was “increase” and the “infiltration of neutrophils in the tumor” value (H2N113 tumors [4]; tucatinib 100 mg/kg orally once daily, 14 days, FIG. 2J) was “decrease”. For the same compound, the “percentage of CD11 b dendritic cells in the tumor” value (H2N113 tumors [4]; tucatinib 100 mg/kg orally once daily, 14 days, FIG. 2K) was “increase”, the “percentage of MHC-II high in the tumor” value (H2N113 tumors [4]; [10]) was “increase” and the “percentage of MHC-II low in the tumor” value (H2N113 tumors [4]; [10]) was “decrease”. For the same compound, the “selectivity for HER2 compared to the closely related kinase EGFR” value (HER2) was greater than 1000 fold, the tumor growth (Fo5 tumors [5]; tucatinib 25, 50, 100 mg/kg orally once daily vs vehicle, p<0.05) was “significantly inhibited tumor growth in a dose-dependent manner; also recorded: significant dose-dependent tumor growth inhibition” and the survival (Fo5 tumors [5]; tucatinib at increasing doses vs vehicle, FIG. 9B) was “improved survival”. The “GI50 at 72 hours” value (SKBR3) was “nanomolar range”, the “GI50 at 72 hours” value (BT474) was “nanomolar range” and the “GI50 at 72 hours” value (H2N113) was “nanomolar range”. The “interferon-7 expression in CD4+ effector memory T cell subset” value (Fo5 tumors [6]; [11]) was “increased”, the “interferon-7 expression in CD8+ effector memory T cell subset” value (Fo5 tumors [6]; [11]) was “increased” and the “PD-1+ expression in CD8+ effector memory T cells” value (Fo5 tumors [6]; [12]) was “increased”. For the same compound, the “granzyme B expression in CD8+ effector memory T cells” value (Fo5 tumors [6]; [12]) was “increased”, the “infiltration of CD8+ T cells expressing PD-1 in the tumor” value (Fo5 tumors [6]; tucatinib 50 mg/kg orally once daily, 10-14 days, vs vehicle, FIG. 1A) was “increase” and the “infiltration of CD8+ T cells expressing IFNγ in the tumor” value (Fo5 tumors [6]; tucatinib 50 mg/kg orally once daily, 10-14 days, vs vehicle, FIG. 1B) was “increase”. The “infiltration of CD8+ T cells expressing FOXP3 in the tumor” value (Fo5 tumors [6]; tucatinib 50 mg/kg orally once daily, 10-14 days, vs vehicle, FIG. 1C) was “increase”, the “CD4+ to CD8+ T cell ratio in the tumor” value (Fo5 tumors [6]; tucatinib 50 mg/kg orally once daily, 10-14 days, vs vehicle, FIG. 1D) was “moderate increase” and the “HER2 signaling pathway (phosphor-HER2 and total HER2)” value (HER2 signaling pathway [7]) was “Inhibition of the HER2 signaling pathway”.
